Laboratory results as given in US6509355B1, “Treatment of disorders of the outer retina” (Alcon Laboratories, Inc., priority 1998, dated 2003).

Legend:
[1] = system: photo-oxidative induced retinopathy; assay: Photo-oxidative induced retinopathy: 6-hour blue light exposure, ERG after 5-day recovery; details: rat, in vivo
Description: Photic retinopathy results from excessive excitation of the retinal pigment epithelium and neuroretina by absorption of visible or near ultraviolet radiation. Lesion severity is dependent upon wavelength, irradiance, exposure duration, species, ocular pigmentation, and age. Damage may result from peroxidation of cellular membranes, inactivation of mitochondrial enzymes such as cytochrome oxidase, or increased intracellular calcium. Cellular damage resulting from photo-oxidative stress leads to cell death by apoptosis, (Shahinfar, S., Edward. D. P. and Tso, M. O. (1991), A pathologic study of photoreceptor cell death in retinal photic injury. Current Eye Research, 10:47-59: Abler, A. S., Chang, C. J., Fu, J. and Tso, M. O. (1994), Photic injury triggers apoptosis of photoreceptor cells. Investigative Ophthalmology & Visual Science, 35(Suppl):1517). Oxidative stress induced apoptosis has been implicated as a cause of many ocular pathologies, including, iatrogenic retinopathy, macular degeneration, retinitis pigmentosa and other forms of heredodegenerative disease, ischemic retinopathy, retinal tears, retinal detachment, glaucoma and retinal neovascularization (Chang, C. J., Lai, W. W., Edward, D. P. and Tso, M. O. (1995), Apoptotic photoreceptor cell death after traumatic retinal detachment in humans, Archives of Ophthalmology, 113:880-886: Portera-Cailliau, C., Sung, C. H., Nathans, J. and Adler, R. (1994), Apoptotic photoreceptor cell death in mouse models of retinitis pigmentosa, Proceedings of National Academy of Science (U.S.A.), 91:974-978; Buchi, E. R. (1992), Cell death in the rat retina after a pressure-induced ischaemia-reperfusion insult: an electron microscopic study. I. Ganglion cell layer and inner nuclear layer, Experimental Eye Research, 55:605-613; Quigley, H. A., Nickells. R. W., Kerrigan, L. A., Pease, M. E., Thibault, D. J. and Zack, D. J. (1995), Retinal ganglion cell death in experimental glaucoma and after axotomy occurs by apoptosis, Investigative Ophthalmology & Visual Science, 36:774-786). […] Alan R. Liss, Inc., New York; Collier, R., W. Waldron and Zigman, S. (1989), Temporal sequence of changes to the gray squirrel retina after near-UV exposure, Investigative Ophthalmology & Visual Science, 30:631-637), non-human primates (Tso, M. O. M. (1973), Photic maculopathy in rhesus monkey. A light and electron microscopic study. Investigative Ophthalmology & Visual Science, 12:17-34; Ham, W. T., Jr., Ruffolo, J. J., Jr., Mueller, H. A. and Guerry, D., III. (1980), The nature of retinal radiation damage: dependence on wavelength, power level and exposure time, Vision Research, 20:1105-1111; Sperling, H. G., Johnson, C. and Harwerth, R. S. (1980), Differential spectral photic damage to primate cones, Vision Research, 20:1117-1125: Sykes, S. M., Robison, W. G., Jr., Waxler, M. and Kuwabara, T. (1981), Damage to the monkey retina by broad spectrum fluorescent light, Investigative Ophthalmology & Visual Science, 20:425-434; Lawwill, T. (1982), Three major pathologic processes caused by light in the primate retina: A search for mechanisms, Transactions of the American Ophthalmology Society, 80:517-577), and man (Marshall, J. Hamilton, A. M. and Bird, A. C. (1975), Histopathology of ruby and argon laser lesions in monkey and human retina, British Journal of Ophthalmology, 59:610-630; Green, W. R. and Robertson, D. M. (1991), Pathologic findings of photic retinopathy in the human eye. American Journal of Ophthalmology, 112:520-27).

retinal laser burn = assay: Retinal laser burn spread damage: argon laser, lesion area in outer nuclear layer after 48 hours; type: in vivo, Pigmented Long Evans rats
Description: The eye is exposed to high-energy laser radiation during the performance of retinal photocoagulation therapy (grid, focal and […]) or during photodynamic therapy. This type of therapy is often employed during treatment of choroidal neovascularization, proliferative stages of diabetic retinopathy, retinopathy of prematurity, or to repair retinal holes or […]. Associated with this laser therapy is tissue destruction leading to vision deterioration. […] It is believed that this vision loss results directly from the expansion of the laser-induced lesion to surrounding normal neurosensory retina and RPE. Singlet oxygen and other reactive oxygen species as well as cytokines are generated in the area of the laser burn and thought to migrate laterally to cause collateral retinal damage. Retinal morphology changes in this area are similar to changes in our photo-oxidative retinopathy paradigm. […] Pigmented Long Evans rats were randomly assigned to control, vehicle or drug dosed groups. […] After a 48-hour recovery period, eyes were fixed, dehydrated, and embedded in plastic resin. Histological assessment of laser burns was performed by flatmounting the retina and sectioning the tissue in a plane tangential to the nerve fiber layer. Using this technique, the lesion area in the outer nuclear layer could be calculated using an image analysis system. […] The laser bum center was marked by; complete closure of all capillaries, arterioles and venuoles; perforation of Bruch's membrane; pyknosis and necrosis of all photoreceptor nuclei; and destruction of inner and outer segments. Spread of the lesion into peripheral retina consisted of shortening of outer segments, inner segment swelling, clumping of melanin granules in the RPE and choroid, and vacuolization of the RPE.

NMDA receptor = assay: Binding affinity to the NMDA receptor; details: order of magnitude only
[2] = system: light induced functional or morphological changes; assay: Light damage paradigms (light induced damage paradigm); details: in vivo
Protocol: Eliprodil was evaluated in our light induced damage paradigm, a model of retinal degenerative diseases such as retinitis pigmentosa and age-related macular degeneration.

[3] = target: NR1A/NR2B subtype of the polyamine binding site of the NMDA receptor (Homo sapiens, UniProt Q05586+Q13224); details: cited from earlier work
NR1A/NR2B subtype of the polyamine binding site of the NMDA receptor, sequence (Q13224 27-1484, other chains not shown): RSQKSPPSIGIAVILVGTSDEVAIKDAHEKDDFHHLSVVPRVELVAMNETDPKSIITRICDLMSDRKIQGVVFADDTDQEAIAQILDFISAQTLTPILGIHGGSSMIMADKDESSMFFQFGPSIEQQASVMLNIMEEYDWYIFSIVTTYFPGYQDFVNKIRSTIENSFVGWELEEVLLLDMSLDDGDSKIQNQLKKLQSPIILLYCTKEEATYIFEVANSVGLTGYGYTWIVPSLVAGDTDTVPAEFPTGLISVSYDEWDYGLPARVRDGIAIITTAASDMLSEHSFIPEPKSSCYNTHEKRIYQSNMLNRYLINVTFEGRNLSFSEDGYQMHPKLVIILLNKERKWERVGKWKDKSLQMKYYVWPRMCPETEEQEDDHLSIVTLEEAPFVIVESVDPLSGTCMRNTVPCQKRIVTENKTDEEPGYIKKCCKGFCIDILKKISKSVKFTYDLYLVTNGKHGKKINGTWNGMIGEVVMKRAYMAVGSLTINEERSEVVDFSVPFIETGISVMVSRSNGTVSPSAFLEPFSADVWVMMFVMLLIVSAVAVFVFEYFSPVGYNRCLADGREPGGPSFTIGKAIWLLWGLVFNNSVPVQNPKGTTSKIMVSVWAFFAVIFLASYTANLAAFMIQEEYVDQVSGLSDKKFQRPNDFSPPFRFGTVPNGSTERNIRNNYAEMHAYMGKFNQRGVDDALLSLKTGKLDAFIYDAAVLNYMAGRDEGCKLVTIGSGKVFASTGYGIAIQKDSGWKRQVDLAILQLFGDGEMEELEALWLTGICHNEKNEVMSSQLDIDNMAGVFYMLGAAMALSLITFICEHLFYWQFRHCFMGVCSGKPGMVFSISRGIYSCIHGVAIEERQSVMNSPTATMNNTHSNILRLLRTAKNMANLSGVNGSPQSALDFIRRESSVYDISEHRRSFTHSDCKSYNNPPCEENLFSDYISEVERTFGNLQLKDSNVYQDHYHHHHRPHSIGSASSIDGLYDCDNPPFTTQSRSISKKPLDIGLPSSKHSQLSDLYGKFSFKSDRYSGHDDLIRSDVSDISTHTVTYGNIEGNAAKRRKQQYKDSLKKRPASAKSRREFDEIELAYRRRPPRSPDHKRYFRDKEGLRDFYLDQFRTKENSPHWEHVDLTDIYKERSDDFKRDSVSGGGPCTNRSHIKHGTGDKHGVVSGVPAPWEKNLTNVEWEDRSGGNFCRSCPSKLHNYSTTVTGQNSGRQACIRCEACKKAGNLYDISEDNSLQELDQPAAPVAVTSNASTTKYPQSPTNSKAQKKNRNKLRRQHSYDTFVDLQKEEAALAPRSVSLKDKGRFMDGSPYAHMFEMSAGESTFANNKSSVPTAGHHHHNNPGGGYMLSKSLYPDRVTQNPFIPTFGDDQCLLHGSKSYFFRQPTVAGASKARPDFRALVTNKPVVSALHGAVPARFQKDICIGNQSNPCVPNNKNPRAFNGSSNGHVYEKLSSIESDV

[4] = Drugs of the Future 1994; cited from earlier work
[5] = Drugs of the Future 1994; cited from earlier work; remark: listed apart in the source

Question: What does the source list for `OC(CN1CCC(Cc2ccc(F)cc2)CC1)c1ccc(Cl)cc1` (racemic) [Eliprodil, 2-[4-(4-fluorobenzyl)-piperidino]-1-(4-chlorophenyl)ethanol]?
Answer: dose dependence of protection of outer and inner retina function [1]: dose-dependent protection; ERGs, % of normal ([1]; ip, 2 mg/kg): approximately 32%; protection of outer and inner retina function against light induced retinal degeneration ([1]; ip, 2 mg/kg): not significantly different than vehicles; ERGs, % of normal ([1]; ip, 10 mg/kg): approximately 32%; protection of outer and inner retina function against light induced retinal degeneration ([1]; ip, 10 mg/kg): not significantly different than vehicles; ERG a-wave, % of normal ([1]; ip, 20 mg/kg): 57%; ERG a-wave, fold higher than vehicle dosed rats ([1]; ip, 20 mg/kg): 2.4 fold; ERG b-wave, % of normal ([1]; ip, 20 mg/kg): 53%; ERG b-wave, fold higher than vehicle dosed rats ([1]; ip, 20 mg/kg): 2.2 fold; Maximum a-wave response amplitude, fold higher than vehicle dosed rats ([1]; ip, 20 mg/kg): 2.4 fold; maximum a-wave response amplitude ([1]; ip, 20 mg/kg): 395.82 μV; response amplitudes, % of normal ([1]; ip, 20 mg/kg): approximately 60%; Maximum a-wave response amplitude, fold higher than vehicle dosed rats ([1]; ip, 40 mg/kg): 2.25 fold; maximum a-wave response amplitude ([1]; ip, 40 mg/kg): 419.85 μV; protection of outer and inner retina function against light induced retinal degeneration ([1]; ip, 40 mg/kg): significant protection; response amplitudes, % of normal ([1]; ip, 40 mg/kg): approximately 60%; Laser burn lesion area (retinal laser burn; 10 mg/kg IP): 55,411.67 μ^2; reduction in laser lesion burn size (retinal laser burn; 10 mg/kg IP): No reduction; reduction of retinal burn area compared to vehicle (retinal laser burn; IP, dose not given): approximately 60%; significance of burn area reduction compared to vehicle (retinal laser burn; IP, dose not given): significantly reduced; average burn area (retinal laser burn; IP, dose not given, vehicle 55,243.65, control 50,627.07): 22,406 μ^2; efficacy compared to R-eliprodil (retinal laser burn; summary): twice as efficacious; potency compared to R-eliprodil (retinal laser burn; summary): two fold more potent; reduction of collateral retinal damage around the laser burn (summary) (retinal laser burn; summary): significant reduction; binding affinity to the NMDA receptor (NMDA receptor): nanomolar; preventing light induced functional or morphological changes [2]: completely protected; subtype preference of NMDA receptor block [3]: preferentially block; crossing of the blood-brain barrier [4]: effectively crosses the blood-brain barrier; oral bioavailability [4]: orally bioavailable; incidence of adverse effects upon administration [5]: low incidence of adverse effects
